The values below come from PubChem BioAssay (NCI).

Common to all, as to assay: NCI-60 cell line screen, 48 h
In assay [1] the test system is CAKI-1 renal.
In assay [2] the test system is UACC-257 melanoma.
Assay [3] deals with MOLT-4 leukemia.
The test system of assay [4] is U251 CNS.
Assay [5] relates to HT29 colon.
Assay [6] deals with NCI-H226 lung.
The test system of assay [7] is OVCAR-3 ovarian.
The subject of assay [8] is SNB-19 CNS.
Assay [9] has as its system A549 NSCLC.
Assay [10] has as its system SW-620 colon.

Structures are written as SMILES.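 Assay format: 96-well plates, 48-hour exposure. Here, GI50 denotes the concentration required for 50% inhibition of growth. TGI: total growth inhibition.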

Regarding `Oc1c(Br)cc2c(c1Br)-c1c(c(O)c3c4c1=NCCC=4C=N3)NCC2`, the TGI in assay [1] is 42.2 µM; in assay [2], 20 µM; in [3], 9.79 µM; in assay [4], 24.5 µM; in assay [5], 20.8 µM; in [6], 32.8 µM. Further, the TGI in assay [7] was 8.47 µM; in [8] it was 35.7 µM; in assay [9], over 80.8 µM; in [10] it was 50.1 µM.

Consider `N#C[S-].[La+3].c1ccc(-c2ccccn2)nc1.c1ccc(-c2ccccn2)nc1.c1ccc(-c2ccccn2)nc1`, for which the GI50 was 12.9 µM in assay [1]; 24.3 µM in [2]; 10.5 µM in assay [3]; 20.1 µM in assay [4]; 18.7 µM in [5]; 19.5 µM in assay [6]. Also, the GI50 was 64.6 µM in assay [7], 54.6 µM in assay [8], 28.6 µM in assay [9] and 33.6 µM in assay [10]. Further, the TGI is 60.8 µM in [1]; 65.2 µM in assay [2]; over 100 µM in [3]; over 100 µM in [4]; over 100 µM in assay [5]; 67.9 µM in assay [6]. Further, the TGI in [7], in assay [8], in assay [9] and in [10] was over 100 µM throughout.

As for `Brc1ccc2[nH]c3c(C4=NCCC4)nccc3c2c1`, the TGI in assay [1] was over 53.1 µM; in assay [2], over 49.7 µM; in assay [3], over 30.4 µM; in assay [4], over 38.8 µM; in [5] it was over 38.7 µM; in [6] it was 26.4 µM. The TGI in [7] is over 100 µM; in [8], over 100 µM; in assay [9], over 100 µM; in [10], over 86.6 µM.

Turning to `Clc1cc(N/N=C(\c2ccccc2)c2ccccn2)ncn1`, the TGI in assay [1] is 0.235 µM; in assay [2], 4.65 µM; in assay [3], 3.48 µM; in assay [4], over 100 µM; in assay [5], over 100 µM; in assay [6], 67.3 µM. For the same molecule, the TGI in assay [7], in assay [8], in assay [9] and in assay [10] was over 100 µM in each case.

As for `Cc1c2cc[n+](Cc3ccc(I)cc3)cc2c(C)c2c1[nH]c1ccccc12`, the TGI was 3.51 µM in assay [1]; 2.09 µM in assay [2]; 1.65 µM in [3]; 8.59 µM in assay [4]; over 25 µM in assay [5]; 5.27 µM in [6]. Moreover, the TGI was 3.72 µM in [7], 9.55 µM in [8], over 25 µM in assay [9] and over 25 µM in [10].

Take `O=c1cc(-c2cccc(OC(F)(F)F)c2)[nH]c2ccc(N3CCCC3)cc12`: the TGI in assay [1] is over 100 µM; in [2], over 100 µM; in [3], 0.00157 µM; in [4], 16.5 µM; in assay [5], 0.00166 µM; in assay [6], 0.000657 µM. For the same molecule, the TGI in [7] is 0.000234 µM; in [8] it was 11.9 µM; in assay [9], 44.5 µM; in assay [10], over 100 µM.
